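Compound exposure: 48 hours, 5 concentrations, 96-well plates. TGI: total growth inhibition.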
Assays:
Test in all cases: inhibition of tumour cell growth, NCI panel, 48 h
[1] = tested on: 786-0 renal
[2] = tested on: A498 renal
[3] = tested on: A549 NSCLC
[4] = tested on: ACHN renal
[5] = tested on: CAKI-1 renal
[6] = tested on: CCRF-CEM leukemia
[7] = tested on: COLO 205 colon
[8] = tested on: DU-145 prostate
[9] = tested on: EKVX NSCLC
[10] = tested on: HCC-2998 colon
[11] = tested on: HCT-116 colon
[12] = tested on: HCT-15 colon
[13] = tested on: HOP-62 NSCLC
[14] = tested on: HOP-92 NSCLC
[15] = tested on: HS 578T breast
[16] = tested on: HT29 colon
[17] = tested on: IGROV1 ovarian
[18] = tested on: K-562 leukemia
[19] = tested on: KM12 colon
[20] = tested on: LOX IMVI melanoma
[21] = tested on: M14 melanoma
[22] = tested on: MALME-3M melanoma
[23] = tested on: MCF7 breast
[24] = tested on: MDA-MB-231 breast
[25] = tested on: MDA-MB-435
[26] = tested on: MDA-N
[27] = tested on: MOLT-4 leukemia
[28] = tested on: NCI-H226 lung
[29] = tested on: NCI-H23 lung
[30] = tested on: NCI-H460 lung
[31] = tested on: NCI-H522 lung
[32] = tested on: NCI/ADR-RES ovarian
[33] = tested on: OVCAR-3 ovarian
[34] = tested on: OVCAR-4 ovarian
[35] = tested on: OVCAR-5 ovarian
[36] = tested on: OVCAR-8 ovarian
[37] = tested on: PC-3 prostate
[38] = tested on: RPMI-8226 leukemia
[39] = tested on: RXF 393 renal
[40] = tested on: SF-268 CNS
[41] = tested on: SF-295 CNS
[42] = tested on: SF-539 CNS
[43] = tested on: SK-MEL-2 melanoma
[44] = tested on: SK-MEL-28 melanoma
[45] = tested on: SK-MEL-5 melanoma
[46] = tested on: SK-OV-3 ovarian
[47] = tested on: SN12C renal
[48] = tested on: SNB-19 CNS
[49] = tested on: SNB-75 CNS
[50] = tested on: SR leukemia
[51] = tested on: SW-620 colon
[52] = tested on: T-47D breast
[53] = tested on: TK-10 renal
[54] = tested on: U251 CNS
[55] = tested on: UACC-257 melanoma
[56] = tested on: UACC-62 melanoma
[57] = tested on: UO-31 renal
[58] = tested on: HL-60(TB) leukemia

In the case of `Cc1nc(Nc2ccc(Cl)cc2Cl)sc1C(=O)Nc1ccccc1`, the TGI [1] is reported as > 100 µM, the TGI [2] is reported as > 100 µM and the TGI [3] is reported as > 100 µM. For the same molecule, the TGI [4] was > 100 µM, the TGI [5] was > 100 µM and the TGI [6] was > 100 µM. The TGI [7] was > 100 µM, the TGI [8] was > 100 µM and the TGI [9] was > 100 µM. The TGI [10] was > 100 µM, the TGI [11] was > 100 µM and the TGI [12] was > 100 µM. For the same molecule, the TGI [13] was > 100 µM, the TGI [14] was > 100 µM and the TGI [15] was > 100 µM. The TGI [16] was > 100 µM, the TGI [17] was > 100 µM and the TGI [18] was > 100 µM. For the same molecule, the TGI [19] was > 100 µM, the TGI [20] was > 100 µM and the TGI [21] was > 100 µM. The TGI [22] was > 100 µM, the TGI [23] was > 100 µM and the TGI [24] was > 100 µM. For the same molecule, the TGI [25] was > 100 µM, the TGI [26] was > 100 µM and the TGI [27] was > 100 µM. The TGI [28] was 17.4 µM, the TGI [29] was > 100 µM and the TGI [30] was > 100 µM. For the same molecule, the TGI [31] was > 100 µM, the TGI [32] was > 100 µM and the TGI [33] was > 100 µM. The TGI [34] was > 100 µM, the TGI [35] was > 100 µM and the TGI [36] was > 100 µM. The TGI [37] was > 100 µM, the TGI [38] was > 100 µM and the TGI [39] was > 100 µM. For the same molecule, the TGI [40] was > 100 µM, the TGI [41] was > 100 µM and the TGI [42] was > 100 µM. The TGI [43] was > 100 µM, the TGI [44] was > 100 µM and the TGI [45] was > 100 µM. For the same molecule, the TGI [46] was > 100 µM, the TGI [47] was > 100 µM and the TGI [48] was > 100 µM. The TGI [49] was > 100 µM, the TGI [50] was > 100 µM and the TGI [51] was > 100 µM. For the same molecule, the TGI [52] was > 100 µM, the TGI [53] was > 100 µM and the TGI [54] was > 100 µM. For the same molecule, the TGI [55] was > 100 µM, the TGI [56] was > 100 µM and the TGI [57] was > 100 µM.

`Cc1ccc(/C=C2\CN(C)CC3=C2NC(=S)NC3c2ccc(C)cc2)cc1` (stereo unspecified) was tested, and the TGI [1] was 77.8 µM, the TGI [2] was > 100 µM and the TGI [3] was > 100 µM. The TGI [4] was > 100 µM, the TGI [5] was > 100 µM and the TGI [6] was 82.4 µM. For the same molecule, the TGI [7] was 46 µM, the TGI [8] was > 100 µM and the TGI [9] was > 100 µM. The TGI [10] was 78.9 µM, the TGI [11] was 60.1 µM and the TGI [12] was > 100 µM. For the same molecule, the TGI [58] was 61.4 µM, the TGI [13] was > 100 µM and the TGI [14] was 82.8 µM. The TGI [15] was > 100 µM, the TGI [16] was 80.4 µM and the TGI [17] was > 100 µM. The TGI [18] was 56.9 µM, the TGI [19] was 39 µM and the TGI [20] was > 100 µM. The TGI [21] was > 100 µM, the TGI [22] was > 100 µM and the TGI [23] was 72.3 µM. For the same molecule, the TGI [24] was > 100 µM, the TGI [25] was 28.1 µM and the TGI [26] was 36.7 µM. The TGI [28] was > 100 µM, the TGI [29] was > 100 µM and the TGI [30] was > 100 µM. The TGI [31] was > 100 µM, the TGI [32] was 68 µM and the TGI [33] was 62.5 µM. The TGI [34] was 67.1 µM, the TGI [35] was > 100 µM and the TGI [36] was > 100 µM. For the same molecule, the TGI [37] was > 100 µM, the TGI [39] was > 100 µM and the TGI [40] was > 100 µM. For the same molecule, the TGI [41] was > 100 µM, the TGI [42] was > 100 µM and the TGI [43] was > 100 µM. For the same molecule, the TGI [44] was > 100 µM, the TGI [45] was > 100 µM and the TGI [46] was > 100 µM. For the same molecule, the TGI [47] was > 100 µM, the TGI [48] was > 100 µM and the TGI [49] was 68 µM. For the same molecule, the TGI [51] was > 100 µM, the TGI [52] was > 100 µM and the TGI [54] was > 100 µM. The TGI [55] was 62 µM, the TGI [56] was > 100 µM and the TGI [57] was > 100 µM.
